Key:
[1] = test system: Differentiated U937 cells; assay: Cell viability: MTT assay; type: cell-based, human; details: 1 μg/mL
Description: Differentiated U937 cells were pre-incubated with each test compound (final concentration 1 μg/mL or 10 μg/mL in 200 μL media indicated below) under two protocols: the first for 4 hr in 5% FCS RPMI1640 media and the second in 10% FCS RPMI1640 media for 24 h. The supernatant was replaced with new media (200 μL) and MTT stock solution (10 μL, 5 mg/mL) was added to each well. After incubation for 1 hr the media were removed, DMSO (200 μL) was added to each well and the plates were shaken lightly for 1 hr prior to reading the absorbance at 550 nm. The percentage loss of cell viability was calculated for each well relative to vehicle (0.5% DMSO) treatment. Consequently an apparent increase in cell viability for drug treatment relative to vehicle is tabulated as a negative percentage.

[2] = test system: LPS-induced neutrophil accumulation; assay: LPS-induced neutrophil accumulation in mice; type: in vivo, Balb/c mice
Description: […] At T=0, mice were placed into an exposure chamber and exposed to LPS (7.0 mL, 0.5 mg/mL solution in PBS) for 30 min). After a further 8 hr the animals were anesthetized, their tracheas cannulated and BALF extracted by infusing and then withdrawing from their lungs 1.0 mL of PBS via the tracheal catheter. Total and differential white cell counts in the BALF samples were measured using a Neubaur haemocytometer. Cytospin smears of the BALF samples were prepared by centrifugation at 200 rpm for 5 min at RT and stained using a DiffQuik stain system (Dade Behring). Cells were counted using oil immersion microscopy. Data for neutrophil numbers in BAL are shown as mean±S.E.M. (standard error of the mean). The percentage inhibition of neutrophil accumulation was calculated for each treatment relative to vehicle treatment.

[3] = Physical stability on storage (TGA, XRPD, IR, DSC, appearance); type: physicochemical; design: key to XRD / IR: Cryst.: crystalline; ~Ref: pattern identical with reference sample; details: for Appearance / IR / XRD / DSC max / TGA <100° C. weight loss / TGA <180° C. weight loss: form B micronized
Description: Patterns were obtained on a PANalytical (Philips) X'PertPRO MPD diffractometer equipped with a Cu LFF X-ray tube (45 kV; 40 mA; Bragg-Brentano; spinner stage) and were acquired using Cu Kα radiation under the following measurement conditions: scan mode: continuous; scan range: 3 to 50° 2θ; step size: 0.02°/step; counting time: 30 sec/step; spinner revolution time: 1 sec; incident beam path: program. divergence slit: 15 mm; Soller slit: 0.04 rad; beam mask: 15 mm; anti scatter slit: 1°; beam knife: +; Diffracted beam path: long anti scatter shield: +; Soller slit: 0.04 rad; Ni filter: +; detector: X'Celerator. Samples were prepared by spreading on a zero background sample holder.
Micro attenuated total reflectance (microATR) was used and the sample was analyzed using a suitable microATR accessory and the following measurement conditions: apparatus: Thermo Nexus 670 FTIR spectrometer; number of scans: 32; resolution: 1 cm^−1; wavelength range: 4000 to 400 cm^−1; detector: DTGS with KBr windows; beamsplitter: Ge on KBr; micro ATR accessory: Harrick Split Pea with Si crystal.
Data were collected on a TA-Instruments Q1000 MTDSC equipped with RCS cooling unit. Typically 3 mg of each compound, in a standard aluminium TA-Instrument sample pan, was heated at 10° C./min from 25 C to 300° C. A nitrogen purge at 50 mL/min was maintained over the sample.
Data were collected on a TA-Instruments Q500 thermogravimeter Typically 10 mg of each sample was transferred into a pre-weighed aluminium pan and was heated at 20° C./min from ambient temperature to 300° C. or […] unless otherwise stated.
Thermal analysis of Compound (I) as the anhydrous free base in crystalline polymorphic form B (micronized) was undertaken using TGA, DVS, XRPD analysis, IR spectroscopy and DSC as described in General Procedures. Where appropriate, a sample at ambient temperature and relative humidity (reference sample/“0 days”) was compared with samples stored at various temperatures and relative humidities (comparative samples).
The reference sample (t=0) and the comparative samples that were exposed prior to analysis to different storage conditions, were heated at a rate of 20° C./min from RT to 300° C. The TGA curve of the reference sample (t=0) is illustrated in FIG. 3 and the results for all samples are summarised below (Table 8). […] The weight loss that occurred above 180° C. was due to evaporation and decomposition of the product. Comparing this weight loss profile with those of the comparative samples in Table 8, no significant differences were observed.
The XPRD diffraction pattern of the reference sample (t=0) is illustrated in FIG. 2 and the IR trace is illustrated in FIG. 6. The diffraction pattern and IR trace were compared with those of the comparative samples (exposed to different storage conditions) and the results are summarised in Table 8. The diffraction patterns and IR traces were identical for all samples.
The reference sample (t=0) and comparative samples, previously exposed to different storage conditions, were heated at a rate of 10° C./min from 25° C. to 300° C. The DSC curve of the reference sample is illustrated in FIG. 7 and the results for all samples are summarised below (Table 8). From FIG. 7, it is evident that the reference sample melted with decomposition at 214.0° C.

[4] = 0.05 mg/mL intra tracheal, 2 hr pre-dose

Cc1ccc(-n2nc(C(C)(C)C)cc2NC(=O)Nc2ccc(Oc3ccnc(Nc4ccccc4)n3)c3ccccc23)cc1 [Compound (I), 1-(3-(tert-Butyl)-1-(p-tolyl)-1H-pyrazol-5-yl)-3-(4-((2-(phenylamino)pyrimidin-4-yl)oxy)naphthalen-1-yl)urea]
MTT Assay Cell viability in d-U937 Cells ([1]; 4 h): −ve (−ve and +ve indicate the value is below and above respectively, the no significant effect threshold defined as 30% inhibition at 1 μg/mL at the time point indicated.)
MTT Assay Cell viability in d-U937 Cells ([1]; 24 h): −ve (−ve and +ve indicate the value is below and above respectively, the no significant effect threshold defined as 30% inhibition at 1 μg/mL at the time point indicated.)
% inhibition of neutrophil accumulation [2, 4]: 18%
Neutrophil numbers in BALF [2, 4]: 15.6 ± 2.1 ×10^5/mL
% inhibition of neutrophil accumulation ([2]; 0.2 mg/mL, 2 hr pre-dose): 48%
Neutrophil numbers in BALF ([2]; 0.2 mg/mL, 2 hr pre-dose): 9.8 ± 1.6 ×10^5/mL
% inhibition of neutrophil accumulation ([2]; 1.0 mg/mL, 2 hr pre-dose): 77%
Neutrophil numbers in BALF ([2]; 1.0 mg/mL, 2 hr pre-dose): 4.4 ± 0.89 ×10^5/mL
% inhibition of neutrophil accumulation ([2]; 1.0 mg/mL, 8 hr pre-dose): 48%
Neutrophil numbers in BALF ([2]; 1.0 mg/mL, 8 hr pre-dose): 9.9 ± 1.8 ×10^5/mL
% inhibition of neutrophil accumulation ([2]; 1.0 mg/mL, 12 hr pre-dose): 4%
Neutrophil numbers in BALF ([2]; 1.0 mg/mL, 12 hr pre-dose): 18.3 ± 2.3 ×10^5/mL
duration of action (time course experiment) ([2]; mice): long duration of action
effect on LPS-induced neutrophil accumulation ([2]; mice): dose dependent inhibition
physical stability ([3]; form B): good physical stability
Appearance ([3]; 1 week/70° C./75% RH): off-white
IR ([3]; 1 week/70° C./75% RH): ~Ref
XRD ([3]; 1 week/70° C./75% RH): ~Ref
Appearance ([3]; 1 week/80° C.): off-white
IR ([3]; 1 week/80° C.): ~Ref
XRD ([3]; 1 week/80° C.): ~Ref
Appearance ([3]; 4 weeks/40° C./75% RH): off-white
DSC max ([3]; 4 weeks/40° C./75% RH): 214 °C
IR ([3]; 4 weeks/40° C./75% RH): ~Ref
TGA <100° C. weight loss ([3]; 4 weeks/40° C./75% RH): 0.8%
TGA <180° C. weight loss ([3]; 4 weeks/40° C./75% RH): 0.3%
XRD ([3]; 4 weeks/40° C./75% RH): ~Ref
Appearance ([3]; 4 weeks/50° C.): off-white
DSC max ([3]; 4 weeks/50° C.): 214 °C
IR ([3]; 4 weeks/50° C.): ~Ref
TGA <100° C. weight loss ([3]; 4 weeks/50° C.): 1.3%
TGA <180° C. weight loss ([3]; 4 weeks/50° C.): 0.5%
XRD ([3]; 4 weeks/50° C.): ~Ref
Appearance ([3]; 4 weeks/RT/56% RH): off-white
DSC max ([3]; 4 weeks/RT/56% RH): 214 °C
IR ([3]; 4 weeks/RT/56% RH): ~Ref
TGA <100° C. weight loss ([3]; 4 weeks/RT/56% RH): 0.5%
TGA <180° C. weight loss ([3]; 4 weeks/RT/56% RH): 0.4%
XRD ([3]; 4 weeks/RT/56% RH): ~Ref
Appearance ([3]; 4 weeks/RT/75% RH): off-white
DSC max ([3]; 4 weeks/RT/75% RH): 214 °C
IR ([3]; 4 weeks/RT/75% RH): ~Ref
TGA <100° C. weight loss ([3]; 4 weeks/RT/75% RH): 0.9%
TGA <180° C. weight loss ([3]; 4 weeks/RT/75% RH): 0.5%
XRD ([3]; 4 weeks/RT/75% RH): ~Ref
Appearance ([3]; 4 weeks/RT/<5% RH): off-white
DSC max ([3]; 4 weeks/RT/<5% RH): 214 °C
IR ([3]; 4 weeks/RT/<5% RH): ~Ref
TGA <100° C. weight loss ([3]; 4 weeks/RT/<5% RH): 0.8%
TGA <180° C. weight loss ([3]; 4 weeks/RT/<5% RH): 0.5%
XRD ([3]; 4 weeks/RT/<5% RH): ~Ref
Appearance ([3]; T = zero): off-white
DSC max ([3]; T = zero): 214 °C
IR ([3]; T = zero): Cryst.
TGA <180° C. weight loss ([3]; T = zero): 0.6%
XRD ([3]; T = zero): Cryst.
